Holding throughout (assay): Bliss excess, mean over the matrix (fraction); higher = more synergy
The test system of one experiment is IST-MES1 (Mesothelioma). In outline: (§1)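 Cell lines grown in DMEM/F12 or RPMI with 10% FBS were plated in 1536-well plates and held 24 hours at 37°C, 5% CO2 before 72 hours of exposure to two-drug dose matrices, with DMSO typically at 0.2%. CellTiter-Glo 2.0 luminescence gave viability, which was converted to inhibition. Vehicle wells were set to 0 and blank wells to 1. Combination Emax is the second-highest inhibition in the matrix, and Bliss excess is the observed combination effect minus the expected EA + EB − EA·EB, where EA and EB are the single-agent effects.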

Experiment [1] has as its system OPM-2 (Plasma Cell Myeloma). The procedure, abridged: as §1
The test system of experiment [2] is RCM-1 (Colorectal Carcinoma). The procedure, abridged:
as §1

Experiment [3] deals with RKN (Other Solid Carcinomas). In outline:
as §1

Another experiment concerns SK-MEL-2 (Melanoma). In outline:
as §1

The test system of the next experiment is NB12 (Neuroblastoma). In outline:
as §1

The test system of experiment [4] is L-1236 (Hodgkin's Lymphoma). In outline: as §1
In experiment [5] the test system is PC-3_[JPC-3] (Lung Adenocarcinoma). In outline: as §1
Experiment [6] concerns LK-2 (Squamous Cell Lung Carcinoma). The procedure, abridged:
as §1

Experiment [7] deals with PSN1 (Pancreatic Carcinoma). In outline: as §1
Experiment [8] deals with MFE-280 (Endometrial Carcinoma). In outline: as §1
The subject of experiment [9] is SK-PN-DW (Other Solid Carcinomas). In outline:
as §1

Experiment [10] has as its system VAL (B-Cell Non-Hodgkin's Lymphoma). In outline:
as §1

For experiment [11], the system named is OVMIU (Ovarian Carcinoma). In outline:
as §1

The test system of experiment [12] is SHP-77 (Small Cell Lung Carcinoma). The procedure, abridged: as §1
Experiment [13] concerns CAL-62 (Thyroid Gland Carcinoma). In outline:
as §1

In the next experiment the test system is SF539 (Glioblastoma). In outline: as §1
Experiment [14] relates to REH (B-Lymphoblastic Leukemia). In outline: as §1
For experiment [15], the system named is COLO-680N (Esophageal Squamous Cell Carcinoma). The procedure, abridged:
as §1

Experiment [16] relates to TE-8 (Esophageal Squamous Cell Carcinoma). In outline:
as §1

For the compound `Cc1c2c(nn1C)CSCc1cc(n(C)n1)CSc1cc(c3ccccc3c1)OCCCc1c(C(=O)O)n(C)c3c-2c(Cl)ccc13` [AZD5991] + Nc1ccn([C@@H]2O[C@H](CO)[C@@H](O)C2(F)F)c(=O)n1 [Gemcitabine] (first compound max 1 µM, 7x7, partner max 0.3 µM), the Bliss excess in the experiment with IST-MES1 (Mesothelioma) was -0.0208; in [1], 0.0109; in experiment [2] it was 0.0164; in experiment [3] it was -0.0708; in the experiment on SK-MEL-2 (Melanoma), -0.0657; in the experiment with NB12 (Neuroblastoma), 0.0008. The Bliss excess in experiment [4] was -0.0646; in experiment [5], -0.0333; in [6], 0.0117; in experiment [7], -0.0486; in experiment [8], -0.0363; in experiment [9] it was 0.008. The Bliss excess was -0.0324 in [10]; -0.0823 in experiment [11]; 0.0181 in [12]; -0.024 in experiment [13]; 0.0133 in the experiment on SF539 (Glioblastoma); -0.0103 in [14]. Further, the Bliss excess is -0.0215 in [15] and -0.0682 in experiment [16].

For the compound `C[C@@H]1COCCN1c1cc(C2([S@](C)(=N)=O)CC2)nc(-c2ccnc3[nH]ccc23)n1` [AZD6738] + Nc1ccn([C@@H]2O[C@H](CO)[C@@H](O)C2(F)F)c(=O)n1 [Gemcitabine] (first compound max 10 µM, 7x7, partner max 0.3 µM), the Bliss excess in the experiment on IST-MES1 (Mesothelioma) is -0.0097; in experiment [1] it was 0.0289; in experiment [2], 0.0156; in experiment [3], 0.0982; in the experiment on SK-MEL-2 (Melanoma), 0.0586; with NB12 (Neuroblastoma), -0.012. The Bliss excess in experiment [4] is 0.0294; in experiment [5], 0.0434; in [6], 0.128; in experiment [7], 0.0209; in experiment [8] it was 0.0731; in [9], -0.0579. Further, the Bliss excess in experiment [10] is -0.108; in [11], -0.0138; in experiment [12] it was 0.0746; in [13], -0.0064; with SF539 (Glioblastoma), 0.0251; in [14], 0.0497. The Bliss excess stood at 0.0393 in [15] and 0.0028 in experiment [16].

For `Cc1cc2ncnn2cc1Nc1ncc2c(n1)n(C1CCOCC1)c(=O)n2C` [AZD7648] + COc1cc([C@@H]2c3cc4c(cc3[C@@H](O[C@@H]3O[C@@H]5CO[C@@H](C)O[C@H]5[C@H](O)[C@H]3O)[C@H]3COC(=O)[C@H]23)OCO4)cc(OC)c1O [Etoposide] (first compound max 10 µM, 7x7, partner max 10 µM), the Bliss excess is 0.116 in the experiment on IST-MES1 (Mesothelioma); -0.0072 in [1]; 0.0309 in experiment [2]; 0.0299 in experiment [3]; -0.0163 with SK-MEL-2 (Melanoma); 0.121 in the experiment on NB12 (Neuroblastoma). Besides, the Bliss excess in experiment [4] was 0.0004; in experiment [5] it was 0.0079; in experiment [6], 0.0713; in experiment [7] it was 0.0771; in experiment [8], -0.0236; in [9], 0.184. Also, the Bliss excess in experiment [10] was -0.0395; in [11], 0.0243; in [12], 0.0139; in experiment [13], 0.127; with SF539 (Glioblastoma) it was 0.136; in experiment [14], 0.158. Moreover, the values for the Bliss excess in [15] and in experiment [16] were 0.0384 and 0.0501, respectively.

Regarding `C[C@@H](Nc1cc(F)cc(F)c1)c1cc(C(=O)N(C)C)cc2c(=O)cc(N3CCOCC3)oc12` [AZD8186] + C1CN(CCC1(C(=O)N[C@@H](CCO)C2=CC=C(C=C2)Cl)N)C3=NC=NC4=C3C=CN4 [AZD5363] (first compound max 10 µM, 7x7, partner max 10 µM), the Bliss excess is -0.0703 in the experiment on IST-MES1 (Mesothelioma); -0.0756 in experiment [1]; 0.0062 in experiment [2]; -0.0448 in [3]; -0.0285 with SK-MEL-2 (Melanoma); -0.0305 with NB12 (Neuroblastoma). In addition, the Bliss excess in experiment [4] was -0.0371; in experiment [5], -0.0245; in experiment [6] it was 0.0061; in experiment [7], -0.0065; in experiment [8] it was -0.0505; in experiment [9], -0.0137. In addition, the Bliss excess in experiment [10] was -0.0608; in experiment [11], -0.0719; in [12] it was -0.0913; in experiment [13], -0.0203; in the experiment with SF539 (Glioblastoma), 0.0225; in [14], -0.023. Besides, the Bliss excess is -0.0335 in experiment [15] and -0.0543 in experiment [16].

On to `C[C@@H](Nc1cc(F)cc(F)c1)c1cc(C(=O)N(C)C)cc2c(=O)cc(N3CCOCC3)oc12` [AZD8186] + CC(=O)c1c(C)c2cnc(Nc3ccc(N4CCNCC4)cn3)nc2n(C2CCCC2)c1=O [Palbociclib] (first compound max 10 µM, 7x7, partner max 10 µM), for which the Bliss excess was 0.0167 with IST-MES1 (Mesothelioma); 0.0338 in experiment [1]; -0.0077 in experiment [2]; -0.0328 in experiment [3]; -0.0346 in the experiment with SK-MEL-2 (Melanoma); 0.0009 in the experiment on NB12 (Neuroblastoma). For the same compound, the Bliss excess was -0.138 in [4]; -0.023 in experiment [5]; 0.0023 in experiment [6]; 0.0298 in experiment [7]; -0.0424 in experiment [8]; 0.073 in experiment [9]. The Bliss excess in [10] is -0.0615; in [11], -0.0439; in [12] it was -0.0692; in experiment [13] it was 0.0294; in the experiment with SF539 (Glioblastoma), 0.0583; in experiment [14] it was 0.0638. In addition, the Bliss excess in experiment [15] was -0.0328; in [16], -0.0495.

As for `C[C@@H](Oc1cc(-c2cnn(C3CCNCC3)c2)cnc1N)c1c(Cl)ccc(F)c1Cl` [Crizotinib] + CC1=C(C(=CC=C1)Cl)NC(=O)C2=CN=C(S2)NC3=CC(=NC(=N3)C)N4CCN(CC4)CCO [Dasatinib] (first compound max 10 µM, 7x7, partner max 2 µM), the Bliss excess is -0.0152 with IST-MES1 (Mesothelioma); 0 in experiment [1]; -0.0081 in experiment [2]; 0.0179 in [3]; -0.0362 in the experiment on SK-MEL-2 (Melanoma); -0.0563 in the experiment on NB12 (Neuroblastoma). In addition, the Bliss excess is -0.0626 in experiment [4]; -0.0005 in experiment [5]; -0.0103 in experiment [6]; -0.0469 in experiment [7]; 0.0091 in [8]; -0.0426 in experiment [9]. Further, the Bliss excess was -0.0228 in [10]; 0.0041 in experiment [11]; -0.0482 in experiment [12]; 0.0464 in [13]; 0.0661 in the experiment with SF539 (Glioblastoma); -0.0153 in [14]. Further, the Bliss excess in [15] is -0.0005; in experiment [16] it was 0.0208.

`N#Cc1cnc(Nc2cc(NC[C@H]3CNCCO3)c(C(F)(F)F)cn2)cn1` [SRA737] + O=c1[nH]cc(F)c(=O)[nH]1 [5-Fluorouracil] (first compound max 10 µM, 7x7, partner max 20 µM): the Bliss excess in the experiment with IST-MES1 (Mesothelioma) is -0.0169; in [1], 0.006; in experiment [2] it was -0.0009; in [3], -0.0501; in the experiment on SK-MEL-2 (Melanoma), -0.025; in the experiment with NB12 (Neuroblastoma), -0.0626. In addition, the Bliss excess in experiment [4] is -0.0358; in experiment [5] it was -0.0443; in experiment [6], 0.0756; in experiment [7], 0.0184; in experiment [8] it was -0.0423; in experiment [9] it was 0.0243. Moreover, the Bliss excess was -0.0569 in experiment [11]; 0.0009 in [12]; -0.0187 in experiment [13]; 0.0471 in the experiment on SF539 (Glioblastoma); 0.0356 in [14]; -0.0279 in [16].

Source of the values: the supplement of paper PMC11061612.
